Reference: ChEMBL document CHEMBL4507274 (2021)

How the values were obtained:
[1] = test system: Epidermal growth factor receptor (Homo sapiens), P00533 [L858R]; settings: Compound concentration 100.0 nM
[2] = test system: Epidermal growth factor receptor (Homo sapiens), P00533 [UNDEFINED MUTATION]; settings: Compound concentration 100.0 nM
[3] = target: Epidermal growth factor receptor (Homo sapiens) (UniProt P00533); settings: Compound concentration 100.0 nM
[4] = target: Cyclin-dependent kinase 2/cyclin E (Homo sapiens) (UniProt P24864+P24941+O96020); experiment: CDK2/ cyclin E (h) Upstate kinase activity assay; format: protein-complex assay; settings: Compound concentration 10.0 uM
HT-29 = experiment: Colon HT-29 cell line MDS Pharma Services Proliferation Assay; format: functional, cell-based, Homo sapiens
SK-MEL-5 = experiment: Melanoma SK-MEL-5 cell line MDS Pharma Services Proliferation Assay; format: functional, cell-based, Homo sapiens
[5] = target: CDK6/cyclin D3 (Homo sapiens) (UniProt P30281+Q00534); experiment: CDK6/ cyclin D3 (h) Upstate kinase activity assay; format: protein-complex assay; settings: Compound concentration 10.0 uM
[6] = target: Rho-associated protein kinase 2 (Rattus norvegicus, UniProt Q62868); experiment: (§1) ROCK-2 (r) Upstate kinase activity assay
[7] = target: Rho-associated protein kinase 2 (Rattus norvegicus) (UniProt Q62868); experiment: as §1; settings: Compound concentration 10.0 uM
[8] = target: Mitogen-activated protein kinase 14 (Homo sapiens) (UniProt Q16539); experiment: SAPK2a (h) Upstate kinase activity assay; settings: Compound concentration 10.0 uM
PC-6 = experiment: Lung PC-6 cell line MDS Pharma Services Proliferation Assay; format: functional, cell-based, Homo sapiens
[9] = target: T1, MAP kinase-activated protein kinase 5 (Homo sapiens) (UniProt Q8IW41); experiment: PRAK (h) Upstate kinase activity assay; settings: Compound concentration 10.0 uM
T1 sequence (whole entry): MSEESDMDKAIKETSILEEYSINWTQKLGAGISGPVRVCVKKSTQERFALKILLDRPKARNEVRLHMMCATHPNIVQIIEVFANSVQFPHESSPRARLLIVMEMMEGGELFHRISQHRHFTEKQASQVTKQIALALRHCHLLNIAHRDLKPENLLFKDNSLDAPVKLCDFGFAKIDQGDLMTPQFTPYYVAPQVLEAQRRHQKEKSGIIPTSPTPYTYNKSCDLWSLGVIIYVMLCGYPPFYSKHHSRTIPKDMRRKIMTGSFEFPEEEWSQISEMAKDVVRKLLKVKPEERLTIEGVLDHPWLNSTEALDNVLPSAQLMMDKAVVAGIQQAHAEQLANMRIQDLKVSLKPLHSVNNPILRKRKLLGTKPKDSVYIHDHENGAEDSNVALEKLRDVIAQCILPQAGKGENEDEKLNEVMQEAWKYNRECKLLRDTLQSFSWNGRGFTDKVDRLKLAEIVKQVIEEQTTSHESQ

[10] = target: Receptor tyrosine-protein kinase erbB-4 (Homo sapiens) (UniProt Q15303); experiment: ErbB4 (h) Upstate kinase activity assay; settings: Compound concentration 10.0 uM
[11] = target: T2, Aurora kinase A (Homo sapiens) (UniProt O14965); experiment: Aurora A (h) Upstate kinase activity assay; settings: Compound concentration 10.0 uM
T2 sequence (whole entry): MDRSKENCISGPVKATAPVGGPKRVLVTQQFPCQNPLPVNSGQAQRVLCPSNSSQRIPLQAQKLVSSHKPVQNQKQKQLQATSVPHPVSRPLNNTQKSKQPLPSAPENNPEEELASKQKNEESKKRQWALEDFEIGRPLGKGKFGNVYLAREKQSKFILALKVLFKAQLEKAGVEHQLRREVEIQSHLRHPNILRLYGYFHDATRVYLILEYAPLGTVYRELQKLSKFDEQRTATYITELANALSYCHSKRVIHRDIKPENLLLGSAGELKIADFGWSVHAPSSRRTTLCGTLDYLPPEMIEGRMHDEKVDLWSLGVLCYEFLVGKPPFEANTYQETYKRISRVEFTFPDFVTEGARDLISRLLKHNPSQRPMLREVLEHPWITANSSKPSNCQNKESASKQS

[12] = target: Insulin-like growth factor 1 receptor (Homo sapiens) (UniProt P08069); experiment: IGF-1R (h) Upstate kinase activity assay; settings: Compound concentration 10.0 uM
[13] = target: AMP-activated protein kinase, AMPK (Rattus norvegicus) (UniProt P54645+Q09137+P80386+P80385+Q9QZH4+Q6V7V4+D4A7E4); experiment: AMPK (r) Upstate kinase activity assay; format: protein-complex assay; settings: Compound concentration 10.0 uM
[14] = target: T3, Cytoplasmic tyrosine-protein kinase BMX (Homo sapiens) (UniProt P51813); experiment: Bmx (h) Upstate kinase activity assay; settings: Compound concentration 10.0 uM
T3 sequence (whole entry): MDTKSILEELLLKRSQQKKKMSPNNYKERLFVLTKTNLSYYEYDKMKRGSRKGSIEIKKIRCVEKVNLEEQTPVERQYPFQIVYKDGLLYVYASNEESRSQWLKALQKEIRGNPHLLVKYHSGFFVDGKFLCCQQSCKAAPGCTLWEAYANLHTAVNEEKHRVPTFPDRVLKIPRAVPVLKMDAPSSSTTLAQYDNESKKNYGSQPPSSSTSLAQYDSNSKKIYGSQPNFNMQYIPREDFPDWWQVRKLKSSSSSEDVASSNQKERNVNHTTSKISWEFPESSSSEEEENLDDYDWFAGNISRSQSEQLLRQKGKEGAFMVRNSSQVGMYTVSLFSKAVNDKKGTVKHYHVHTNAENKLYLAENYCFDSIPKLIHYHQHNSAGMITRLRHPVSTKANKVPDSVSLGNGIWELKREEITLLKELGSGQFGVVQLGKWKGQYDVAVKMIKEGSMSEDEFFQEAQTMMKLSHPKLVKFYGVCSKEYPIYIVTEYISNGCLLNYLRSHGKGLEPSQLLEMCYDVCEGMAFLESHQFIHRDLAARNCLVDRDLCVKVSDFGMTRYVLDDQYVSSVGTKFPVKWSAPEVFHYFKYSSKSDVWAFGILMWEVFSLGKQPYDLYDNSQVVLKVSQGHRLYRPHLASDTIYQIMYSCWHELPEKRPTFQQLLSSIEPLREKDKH

[15] = target: Protein kinase C delta type (Homo sapiens) (UniProt Q05655); experiment: PKCdelta (h) Upstate kinase activity assay; settings: Compound concentration 10.0 uM

Sequence of Rho-associated protein kinase 2 (Rattus norvegicus) (Q62868 whole entry, looked up): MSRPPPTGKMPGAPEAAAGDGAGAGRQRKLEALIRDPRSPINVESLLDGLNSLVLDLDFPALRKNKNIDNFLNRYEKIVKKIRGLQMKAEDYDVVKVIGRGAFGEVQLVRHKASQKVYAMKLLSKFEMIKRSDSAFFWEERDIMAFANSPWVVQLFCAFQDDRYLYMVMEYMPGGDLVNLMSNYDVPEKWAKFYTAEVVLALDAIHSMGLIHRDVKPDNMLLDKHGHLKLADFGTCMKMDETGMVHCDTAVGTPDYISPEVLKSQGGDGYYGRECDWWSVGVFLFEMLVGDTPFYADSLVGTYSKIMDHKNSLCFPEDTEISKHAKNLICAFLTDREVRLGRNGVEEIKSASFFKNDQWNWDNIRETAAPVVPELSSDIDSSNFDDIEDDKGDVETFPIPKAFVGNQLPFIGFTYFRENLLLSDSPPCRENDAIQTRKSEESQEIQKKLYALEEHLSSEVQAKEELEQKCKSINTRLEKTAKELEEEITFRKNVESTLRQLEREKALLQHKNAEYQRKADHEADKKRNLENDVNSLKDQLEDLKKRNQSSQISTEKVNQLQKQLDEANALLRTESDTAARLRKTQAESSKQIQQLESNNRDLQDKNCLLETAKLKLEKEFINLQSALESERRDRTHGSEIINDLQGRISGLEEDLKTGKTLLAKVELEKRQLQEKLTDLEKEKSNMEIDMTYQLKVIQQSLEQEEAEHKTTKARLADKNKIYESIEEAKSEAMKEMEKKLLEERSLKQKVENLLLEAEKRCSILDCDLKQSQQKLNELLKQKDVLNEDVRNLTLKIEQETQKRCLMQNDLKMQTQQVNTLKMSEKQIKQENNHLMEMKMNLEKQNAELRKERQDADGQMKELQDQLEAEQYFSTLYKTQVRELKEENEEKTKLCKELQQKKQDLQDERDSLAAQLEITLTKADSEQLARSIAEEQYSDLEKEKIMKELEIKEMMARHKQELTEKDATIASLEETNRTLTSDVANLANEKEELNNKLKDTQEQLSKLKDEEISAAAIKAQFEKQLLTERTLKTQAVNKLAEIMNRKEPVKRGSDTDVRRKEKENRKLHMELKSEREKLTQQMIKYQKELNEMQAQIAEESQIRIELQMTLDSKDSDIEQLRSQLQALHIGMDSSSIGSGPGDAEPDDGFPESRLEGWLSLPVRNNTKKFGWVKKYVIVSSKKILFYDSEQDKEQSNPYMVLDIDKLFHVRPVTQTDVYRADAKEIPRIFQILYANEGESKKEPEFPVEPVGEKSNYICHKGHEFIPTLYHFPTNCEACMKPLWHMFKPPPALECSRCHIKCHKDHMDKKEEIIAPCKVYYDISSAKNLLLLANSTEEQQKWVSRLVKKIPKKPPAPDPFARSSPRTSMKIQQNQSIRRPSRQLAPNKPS
Sequence of Rho-associated protein kinase 2 (Q62868 whole entry): as the sequence (Q62868 whole entry, looked up) above
Sequence of Mitogen-activated protein kinase 14 (Homo sapiens) (Q16539 whole entry): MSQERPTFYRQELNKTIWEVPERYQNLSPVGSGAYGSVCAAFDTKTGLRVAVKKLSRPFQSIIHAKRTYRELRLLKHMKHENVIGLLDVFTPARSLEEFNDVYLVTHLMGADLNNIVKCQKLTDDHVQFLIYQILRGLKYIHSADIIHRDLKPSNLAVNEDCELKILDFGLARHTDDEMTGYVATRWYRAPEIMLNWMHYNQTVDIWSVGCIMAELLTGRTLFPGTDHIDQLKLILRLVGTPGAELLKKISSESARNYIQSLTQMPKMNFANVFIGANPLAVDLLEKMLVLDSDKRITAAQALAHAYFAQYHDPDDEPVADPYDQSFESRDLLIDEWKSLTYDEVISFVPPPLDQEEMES
Sequence of Insulin-like growth factor 1 receptor (Homo sapiens) (P08069 31-736 limits assumed): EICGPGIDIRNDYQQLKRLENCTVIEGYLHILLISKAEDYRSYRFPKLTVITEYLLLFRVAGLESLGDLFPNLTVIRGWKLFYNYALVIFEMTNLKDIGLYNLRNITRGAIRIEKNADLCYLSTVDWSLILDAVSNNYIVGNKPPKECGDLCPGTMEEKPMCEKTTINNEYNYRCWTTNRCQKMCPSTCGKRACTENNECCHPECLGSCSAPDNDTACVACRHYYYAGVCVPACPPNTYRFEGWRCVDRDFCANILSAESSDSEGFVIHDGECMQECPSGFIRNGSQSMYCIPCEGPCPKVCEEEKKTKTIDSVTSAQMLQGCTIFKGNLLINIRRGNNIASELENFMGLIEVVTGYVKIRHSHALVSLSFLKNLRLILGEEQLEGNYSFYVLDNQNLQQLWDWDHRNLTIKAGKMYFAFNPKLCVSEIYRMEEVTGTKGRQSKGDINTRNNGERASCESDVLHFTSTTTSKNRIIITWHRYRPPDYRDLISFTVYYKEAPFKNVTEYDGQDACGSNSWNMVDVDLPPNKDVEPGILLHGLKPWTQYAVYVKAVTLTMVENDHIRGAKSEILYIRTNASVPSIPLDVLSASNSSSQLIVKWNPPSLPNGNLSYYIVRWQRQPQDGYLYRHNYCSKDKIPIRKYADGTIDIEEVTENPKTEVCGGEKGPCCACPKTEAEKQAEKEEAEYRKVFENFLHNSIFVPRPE
Sequence of Insulin-like growth factor 1 receptor (Homo sapiens) (P08069 741-1367 limits assumed): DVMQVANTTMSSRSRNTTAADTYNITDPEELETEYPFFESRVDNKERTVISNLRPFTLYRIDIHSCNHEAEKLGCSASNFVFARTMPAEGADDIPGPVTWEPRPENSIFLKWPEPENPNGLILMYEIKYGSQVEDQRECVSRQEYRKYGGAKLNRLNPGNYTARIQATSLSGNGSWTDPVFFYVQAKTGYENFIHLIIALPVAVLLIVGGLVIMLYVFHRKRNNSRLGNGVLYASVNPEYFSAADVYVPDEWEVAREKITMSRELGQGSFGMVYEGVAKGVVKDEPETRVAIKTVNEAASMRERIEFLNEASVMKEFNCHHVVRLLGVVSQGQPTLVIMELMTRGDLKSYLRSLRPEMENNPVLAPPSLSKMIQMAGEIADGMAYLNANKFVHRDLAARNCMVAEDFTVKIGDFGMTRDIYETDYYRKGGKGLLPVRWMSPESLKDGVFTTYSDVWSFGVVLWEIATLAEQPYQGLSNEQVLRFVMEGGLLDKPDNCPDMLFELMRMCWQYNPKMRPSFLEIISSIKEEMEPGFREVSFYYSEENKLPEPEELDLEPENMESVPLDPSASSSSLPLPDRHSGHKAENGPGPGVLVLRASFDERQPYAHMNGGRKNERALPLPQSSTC
Sequence of Receptor tyrosine-protein kinase erbB-4 (Homo sapiens) (Q15303 whole entry): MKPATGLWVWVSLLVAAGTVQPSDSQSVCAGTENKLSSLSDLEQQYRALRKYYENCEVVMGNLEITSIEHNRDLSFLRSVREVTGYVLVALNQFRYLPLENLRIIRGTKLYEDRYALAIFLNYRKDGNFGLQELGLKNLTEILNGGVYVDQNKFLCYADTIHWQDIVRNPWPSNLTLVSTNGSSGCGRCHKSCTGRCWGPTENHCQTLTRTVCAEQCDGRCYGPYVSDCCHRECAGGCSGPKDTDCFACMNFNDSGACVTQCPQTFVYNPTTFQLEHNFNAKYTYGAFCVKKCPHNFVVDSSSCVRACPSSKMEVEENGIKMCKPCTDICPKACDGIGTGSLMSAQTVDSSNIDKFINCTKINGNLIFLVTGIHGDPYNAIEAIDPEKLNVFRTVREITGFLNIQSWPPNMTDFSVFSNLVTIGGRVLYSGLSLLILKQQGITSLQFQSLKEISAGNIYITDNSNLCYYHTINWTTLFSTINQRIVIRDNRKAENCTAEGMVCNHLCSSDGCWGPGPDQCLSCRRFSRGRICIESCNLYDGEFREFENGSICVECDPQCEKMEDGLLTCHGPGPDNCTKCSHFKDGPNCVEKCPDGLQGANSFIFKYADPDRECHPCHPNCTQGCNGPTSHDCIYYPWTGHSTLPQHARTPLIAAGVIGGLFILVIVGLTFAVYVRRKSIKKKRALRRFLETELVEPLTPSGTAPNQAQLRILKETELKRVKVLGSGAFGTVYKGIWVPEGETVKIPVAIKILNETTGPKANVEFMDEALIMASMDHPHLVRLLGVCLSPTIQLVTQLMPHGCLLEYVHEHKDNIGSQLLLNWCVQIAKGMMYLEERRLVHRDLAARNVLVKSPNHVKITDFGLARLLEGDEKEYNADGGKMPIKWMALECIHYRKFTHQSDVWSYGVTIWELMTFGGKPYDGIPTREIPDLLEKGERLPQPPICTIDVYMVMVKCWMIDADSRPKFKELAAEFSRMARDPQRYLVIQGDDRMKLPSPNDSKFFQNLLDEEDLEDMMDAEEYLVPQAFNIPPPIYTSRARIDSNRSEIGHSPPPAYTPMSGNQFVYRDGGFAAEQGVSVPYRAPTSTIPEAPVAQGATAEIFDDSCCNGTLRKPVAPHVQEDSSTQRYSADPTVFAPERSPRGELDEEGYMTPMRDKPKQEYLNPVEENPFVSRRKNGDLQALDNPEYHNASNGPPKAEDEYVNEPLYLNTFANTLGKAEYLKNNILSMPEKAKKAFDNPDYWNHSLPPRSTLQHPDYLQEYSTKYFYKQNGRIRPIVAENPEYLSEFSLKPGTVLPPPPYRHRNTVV

**Q.** How did the residual activity [1] turn out when `Cn1cc(Cl)c2c(Oc3c(F)cc(Nc4cc(Cl)nc(N)n4)cc3F)ccnc21` [BAY-4900] was run?
**A.** 98%

**Q.** What about the residual activity [2] of the same molecule?
**A.** 94%

**Q.** And the residual activity [3]?
**A.** 97%

**Q.** Which results are given for `Cc1c[nH]c2nccc(Oc3c(F)cc(Nc4cc(Cl)nc(N)n4)cc3F)c12` [BAY-549]?
**A.** inhibition [4]: 40%; IC50 (HT-29; Homo sapiens, HT-29): 2.9 µM; TGI (HT-29; Homo sapiens, HT-29): 19 µM; CC50 (HT-29; Homo sapiens, HT-29, read-out: LC50 (the source's name)): > 100 µM; Mean % growth (n = 2) for 0.1 µM probe concentration (HT-29; ± SEM 1 % growth): 95%; Mean % growth (n = 2) for 1.0 µM probe concentration (HT-29; ± SEM 1 % growth): 75%; Mean % growth (n = 2) for 10.0 µM probe concentration (HT-29; ± SEM 4 % growth): 10%; Mean % growth (n = 2) for 0.01 µM probe concentration (HT-29; ± SEM 8 % growth): 100%; Mean % growth (n = 2) for 100.0 µM probe concentration (HT-29; ± SEM 9 % growth): -38%; IC50 (SK-MEL-5; Homo sapiens, SK-MEL-5): 16 µM; TGI (SK-MEL-5; Homo sapiens, SK-MEL-5): 50 µM; CC50 (SK-MEL-5; Homo sapiens, SK-MEL-5, read-out: LC50 (the source's name)): > 100 µM; Mean % growth (n = 2) for 100.0 µM probe concentration (SK-MEL-5; ± SEM 1 % growth): -32%; Mean % growth (n = 2) for 0.01 µM probe concentration (SK-MEL-5; ± SEM 3 % growth): 106%; Mean % growth (n = 2) for 1.0 µM probe concentration (SK-MEL-5; ± SEM 3 % growth): 98%; Mean % growth (n = 2) for 10.0 µM probe concentration (SK-MEL-5; ± SEM 6 % growth): 65%; Mean % growth (n = 2) for 0.1 µM probe concentration (SK-MEL-5; ± SEM 8 % growth): 89%; inhibition [5]: 9%; IC50 [6]: < 0.001 µM; inhibition [7]: 102%; inhibition [8]: 21%; IC50 (PC-6; Homo sapiens, PC-6): 4.2 µM; TGI (PC-6; Homo sapiens, PC-6): 18 µM; CC50 (PC-6; Homo sapiens, PC-6, read-out: LC50 (the source's name)): 76 µM; Mean % growth (n = 2) for 0.1 µM probe concentration (PC-6; ± SEM 5 % growth): 84%; Mean % growth (n = 2) for 100.0 µM probe concentration (PC-6; ± SEM 6 % growth): -65%; Mean % growth (n = 2) for 10.0 µM probe concentration (PC-6; ± SEM 7 % growth): 32%; Mean % growth (n = 2) for 0.01 µM probe concentration (PC-6; ± SEM 9 % growth): 105%; Mean % growth (n = 2) for 1.0 µM probe concentration (PC-6; ± SEM 9 % growth): 70%; inhibition [9]: 36%; inhibition [10]: 5%; inhibition [11]: 77%; inhibition [12]: 41%; inhibition [13]: 8%; inhibition [14]: 18%; inhibition [15]: 16%
